Experimental data: patent US20250145665A1, “MACROCYCLIC PEPTIDES USEFUL AS MODULATORS OF TNF ALPHA” (Bristol-Myers Squibb Company, priority 2023, published 2025)
pIC50: −log10 of the molar value. Like-named read-outs stand apart in the source and are kept apart here. Starred links: 1 amine or outer side, 2 acyl side, 3 side chain; linkers in the order of their positions; H or OH if unused. Positions of bridges follow the written chain, without caps; N, C: chain ends. Non-standard residues stand in square brackets, D forms with d. Residues, ends and D or L forms follow the SMILES beside them. *: point of attachment. Bip(4'-NHCO-C6H4-3-CH2COOH) = N[C@@H](Cc1ccc(-c2ccc(NC(=O)c3cccc(CC(=O)O)c3)cc2)cc1)C(=O)O; Bip(4'-NHCO-C6H4-4-CH2COOH) = N[C@@H](Cc1ccc(-c2ccc(NC(=O)c3ccc(CC(=O)O)cc3)cc2)cc1)C(=O)O; Bip(4'-NH) = O=C([C@H](Cc1ccc(-c2ccc(N[*:3])cc2)cc1)N[*:1])[*:2]; Bip(4'-COOH) = N[C@@H](Cc1ccc(-c2ccc(C(=O)O)cc2)cc1)C(=O)O; Indole3carbonyl(1-CH2COOH) = O=C(O)Cn1cc(C(=O)*)c2ccccc21; dArg(ω-Bn) = N=C(NCCC[C@@H](N)C(=O)O)NCc1ccccc1; Benzoyl(3-OCH2COOH) = O=C(O)COc1cccc(C(=O)*)c1; Phe(3-CONH2) = NC(=O)c1cccc(C[C@H](N)C(=O)O)c1; Cha = N[C@@H](CC1CCCCC1)C(=O)O; Tle = CC(C)(C)[C@H](N)C(=O)O; Sar = CNCC(=O)O

Biological target: TNFα (Homo sapiens, UniProt P01375)
Sequence (P01375 77-233 limits assumed): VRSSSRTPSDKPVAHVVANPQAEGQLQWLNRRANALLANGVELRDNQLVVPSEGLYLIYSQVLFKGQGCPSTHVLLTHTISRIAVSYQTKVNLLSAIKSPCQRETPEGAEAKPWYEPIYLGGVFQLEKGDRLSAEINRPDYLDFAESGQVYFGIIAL
Assay: TNF-Induced HEK-Blue Assay
Format: cell-based
[1] = HEK-Blue-CD40L cells, NF-kB-driven secreted alkaline phosphatase reporter, TNFα 0.5 ng/ml, 18 h, read-out: TNF induced HEK-Blue assay IC50 value

Row | SMILES | pIC50 | pIC50 [1]
1 | CC(C)C[C@@H]1NC(=O)[C@H](Cc2ccc(O)cc2)NC(=O)[C@H](C(C)C)NC(=O)[C@@H]2CCCN2C(=O)[C@H](C(C)C)NC(=O)[C@@H](CCCNC(=N)NCc2ccccc2)NC(=O)[C@H](CC(=O)O)NC(=O)[C@@H]2CCCN2C(=O)CN(C)C(=O)[C@H](Cc2ccc(-c3ccc(NC(=O)c4cn(CC(=O)O)c5ccccc45)cc3)cc2)NC(=O)[C@H](Cc2ccc(-c3ccc(C(=O)O)cc3)cc2)NC(=O)[C@H](CC2CCCCC2)NC(=O)CSC[C@@H](C(=O)NCC(N)=O)NC1=O [Example 580] ({CH2CO}-[Cha][Bip(4'-COOH)][Bip(4'-NH)](Indole3carbonyl(1-CH2COOH))[Sar]PD[dArg(ω-Bn)]VPVYLCG-NH2; thioether N-13) | > 7.30 | 
2 | CC(C)C[C@@H]1NC(=O)[C@H](Cc2ccc(O)cc2)NC(=O)[C@H](C(C)C)NC(=O)[C@@H]2CCCN2C(=O)[C@H](C(C)C)NC(=O)[C@@H](CCCNC(=N)NCc2ccccc2)NC(=O)[C@H](CC(=O)O)NC(=O)[C@@H]2CCCN2C(=O)CN(C)C(=O)[C@H](Cc2ccc(-c3ccc(NC(=O)c4ccc(CC(=O)O)cc4)cc3)cc2)NC(=O)[C@H](Cc2ccc(-c3ccc(C(=O)O)cc3)cc2)NC(=O)[C@H](CC2CCCCC2)NC(=O)CSC[C@@H](C(=O)NCC(N)=O)NC1=O [Example 582] ({CH2CO}-[Cha][Bip(4'-COOH)][Bip(4'-NHCO-C6H4-4-CH2COOH)][Sar]PD[dArg(ω-Bn)]VPVYLCG-NH2; thioether N-13) |  | > 7.30
3 | CC(C)C[C@@H]1NC(=O)[C@H](Cc2ccc(O)cc2)NC(=O)[C@H](C(C)C)NC(=O)[C@@H]2CCCN2C(=O)[C@H](C(C)C)NC(=O)[C@@H](CCCNC(=N)NCc2ccccc2)NC(=O)[C@H](CC(=O)O)NC(=O)[C@@H]2CCCN2C(=O)CN(C)C(=O)[C@H](Cc2ccc(-c3ccc(NC(=O)c4cccc(CC(=O)O)c4)cc3)cc2)NC(=O)[C@H](Cc2ccc(-c3ccc(C(=O)O)cc3)cc2)NC(=O)[C@H](CC2CCCCC2)NC(=O)CSC[C@@H](C(=O)NCC(N)=O)NC1=O [Example 583] ({CH2CO}-[Cha][Bip(4'-COOH)][Bip(4'-NHCO-C6H4-3-CH2COOH)][Sar]PD[dArg(ω-Bn)]VPVYLCG-NH2; thioether N-13) |  | 6.70 to 7.30
4 | CC[C@H](C)[C@@H]1NC(=O)[C@@H](CCCNC(=N)NCc2ccccc2)NC(=O)[C@H](CC(=O)O)NC(=O)[C@H](Cc2cnc[nH]2)NC(=O)CN(C)C(=O)[C@H](Cc2ccc(-c3ccc(NC(=O)c4ccc(CC(=O)O)cc4)cc3)cc2)NC(=O)[C@H](Cc2ccc(-c3ccc(C(=O)O)cc3)cc2)NC(=O)[C@H](CC2CCCCC2)NC(=O)CSC[C@@H](C(=O)NCC(N)=O)NC(=O)[C@H](CC(C)C)NC(=O)[C@H](Cc2cnc[nH]2)NC(=O)[C@H](C(C)C)NC(=O)[C@@H]2CCCN2C1=O [Example 584] ({CH2CO}-[Cha][Bip(4'-COOH)][Bip(4'-NHCO-C6H4-4-CH2COOH)][Sar]HD[dArg(ω-Bn)]IPVHLCG-NH2; thioether N-13) |  | 6.70 to 7.30
5 | CC[C@H](C)[C@@H]1NC(=O)[C@@H](CCCNC(=N)NCc2ccccc2)NC(=O)[C@H](CC(=O)O)NC(=O)[C@H](Cc2cnc[nH]2)NC(=O)CN(C)C(=O)[C@H](Cc2ccc(-c3ccc(NC(=O)c4cccc(OCC(=O)O)c4)cc3)cc2)NC(=O)[C@H](Cc2ccc(-c3ccc(C(=O)O)cc3)cc2)NC(=O)[C@H](CC2CCCCC2)NC(=O)CSC[C@@H](C(=O)NCC(N)=O)NC(=O)[C@H](CC(C)C)NC(=O)[C@H](Cc2cnc[nH]2)NC(=O)[C@H](C(C)C)NC(=O)[C@@H]2CCCN2C1=O [Example 585] ({CH2CO}-[Cha][Bip(4'-COOH)][Bip(4'-NH)](Benzoyl(3-OCH2COOH))[Sar]HD[dArg(ω-Bn)]IPVHLCG-NH2; thioether N-13) |  | 6.70 to 7.30
6 | CC[C@H](C)[C@@H]1NC(=O)[C@@H](CCCNC(=N)N)NC(=O)[C@H](CC(=O)O)NC(=O)[C@H](Cc2cnc[nH]2)NC(=O)CN(C)C(=O)[C@H](Cc2ccc(-c3ccc(NC(=O)c4cccc(OCC(=O)O)c4)cc3)cc2)NC(=O)[C@H](Cc2ccc(-c3ccc(C(=O)O)cc3)cc2)NC(=O)[C@H](CC2CCCCC2)NC(=O)CSC[C@@H](C(=O)NCC(N)=O)NC(=O)[C@H](CC(C)C)NC(=O)[C@H](Cc2cccc(C(N)=O)c2)NC(=O)[C@H](C(C)C)NC(=O)[C@@H]2CCCN2C1=O [Example 586] ({CH2CO}-[Cha][Bip(4'-COOH)][Bip(4'-NH)](Benzoyl(3-OCH2COOH))[Sar]HD[dR]IPV[Phe(3-CONH2)]LCG-NH2; thioether N-13) |  | > 7.30
7 | CC(C)C[C@@H]1NC(=O)[C@H](Cc2cccc(C(N)=O)c2)NC(=O)[C@H](C(C)C)NC(=O)[C@@H]2CCCN2C(=O)[C@H](C(C)C)NC(=O)[C@@H](CCCNC(=N)N)NC(=O)[C@H](CC(=O)O)NC(=O)[C@H](Cc2cnc[nH]2)NC(=O)CN(C)C(=O)[C@H](Cc2ccc(-c3ccc(NC(=O)c4cccc(OCC(=O)O)c4)cc3)cc2)NC(=O)[C@H](Cc2ccc(-c3ccc(C(=O)O)cc3)cc2)NC(=O)[C@H](CC2CCCCC2)NC(=O)CSC[C@@H](C(=O)NCC(N)=O)NC1=O [Example 587] ({CH2CO}-[Cha][Bip(4'-COOH)][Bip(4'-NH)](Benzoyl(3-OCH2COOH))[Sar]HD[dR]VPV[Phe(3-CONH2)]LCG-NH2; thioether N-13) |  | > 7.30
8 | CC[C@H](C)[C@@H]1NC(=O)[C@@H](CCCNC(=N)N)NC(=O)[C@H](CC(=O)O)NC(=O)[C@H](Cc2cnc[nH]2)NC(=O)CN(C)C(=O)[C@H](Cc2ccc(-c3ccc(NC(=O)c4cccc(CC(=O)O)c4)cc3)cc2)NC(=O)[C@H](Cc2ccc(-c3ccc(C(=O)O)cc3)cc2)NC(=O)[C@H](CC2CCCCC2)NC(=O)CSC[C@@H](C(=O)NCC(N)=O)NC(=O)[C@H](CC(C)C)NC(=O)[C@H](Cc2cccc(C(N)=O)c2)NC(=O)[C@H](C(C)C)NC(=O)[C@@H]2CCCN2C1=O [Example 588] ({CH2CO}-[Cha][Bip(4'-COOH)][Bip(4'-NHCO-C6H4-3-CH2COOH)][Sar]HD[dR]IPV[Phe(3-CONH2)]LCG-NH2; thioether N-13) |  | > 7.30
9 | CC[C@H](C)[C@@H]1NC(=O)[C@@H](CCCNC(=N)N)NC(=O)[C@H](CC(=O)O)NC(=O)[C@H](Cc2cnc[nH]2)NC(=O)CN(C)C(=O)[C@H](Cc2ccc(-c3ccc(NC(=O)c4ccc(CC(=O)O)cc4)cc3)cc2)NC(=O)[C@H](Cc2ccc(-c3ccc(C(=O)O)cc3)cc2)NC(=O)[C@H](CC2CCCCC2)NC(=O)CSC[C@@H](C(=O)NCC(N)=O)NC(=O)[C@H](CC(C)C)NC(=O)[C@H](Cc2cccc(C(N)=O)c2)NC(=O)[C@H](C(C)C)NC(=O)[C@@H]2CCCN2C1=O [Example 589] ({CH2CO}-[Cha][Bip(4'-COOH)][Bip(4'-NHCO-C6H4-4-CH2COOH)][Sar]HD[dR]IPV[Phe(3-CONH2)]LCG-NH2; thioether N-13) |  | > 7.30
10 | CC(C)C[C@@H]1NC(=O)[C@H](Cc2cccc(C(N)=O)c2)NC(=O)[C@H](C(C)C)NC(=O)[C@@H]2CCCN2C(=O)[C@H](C(C)C)NC(=O)[C@@H](CCCNC(=N)N)NC(=O)[C@H](CC(=O)O)NC(=O)[C@H](Cc2cnc[nH]2)NC(=O)CN(C)C(=O)[C@H](Cc2ccc(-c3ccc(NC(=O)c4cccc(OCC(=O)O)c4)cc3)cc2)NC(=O)[C@H](Cc2ccc(-c3ccc(C(=O)O)cc3)cc2)NC(=O)[C@H](C(C)(C)C)NC(=O)CSC[C@@H](C(=O)NCC(N)=O)NC1=O [Example 590] ({CH2CO}-[Tle][Bip(4'-COOH)][Bip(4'-NH)](Benzoyl(3-OCH2COOH))[Sar]HD[dR]VPV[Phe(3-CONH2)]LCG-NH2; thioether N-13) |  | > 7.30
